The results in this text go back to patent US7282522B2, “Hydroxamic acid derivatives and the method for preparing thereof” (Amorepacific Corporation, priority 2003, dated 2007).

The target of one series is T1, RARα (Homo sapiens, UniProt P10276).
T1 construct: expressed in transfected cells; host or cells: CV-1 cells (ATCC)
T1 sequence (P10276 1-462): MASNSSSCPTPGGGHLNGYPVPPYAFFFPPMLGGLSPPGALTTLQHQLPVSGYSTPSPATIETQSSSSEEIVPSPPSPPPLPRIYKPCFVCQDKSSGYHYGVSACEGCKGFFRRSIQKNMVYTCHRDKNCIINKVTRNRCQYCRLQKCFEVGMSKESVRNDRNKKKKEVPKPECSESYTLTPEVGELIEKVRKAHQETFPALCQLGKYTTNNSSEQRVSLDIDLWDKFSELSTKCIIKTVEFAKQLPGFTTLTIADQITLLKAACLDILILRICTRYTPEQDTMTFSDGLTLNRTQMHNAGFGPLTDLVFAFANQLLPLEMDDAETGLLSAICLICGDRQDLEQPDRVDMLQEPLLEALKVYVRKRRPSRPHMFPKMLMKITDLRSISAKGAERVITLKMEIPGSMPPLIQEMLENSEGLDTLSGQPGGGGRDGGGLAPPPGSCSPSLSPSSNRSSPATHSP
Nature of the series: RARE-luciferase reporter assay in transfected CV-1 cells (affinity to retinoic acid receptor), RARα. Format: cell-based. The conditions noted are these: treated 24 hours at final concentration 10^−4M, control group 1000. A digest of the protocol: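 CV-1 cells co-transfected with pECE-RARα or pECE-RARγ, RARE-tk-Luc reporter and β-galactosidase vector. Starting 24 h post-transfection, cells were treated for 24 h with compounds at a final 10^−4M; luciferase reporter read-out.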

The target in a further series is T2, RARγ (Homo sapiens, UniProt P13631).
T2 construct: expressed in transfected cells; host or cells: CV-1 cells (ATCC)
T2 sequence (P13631 1-454): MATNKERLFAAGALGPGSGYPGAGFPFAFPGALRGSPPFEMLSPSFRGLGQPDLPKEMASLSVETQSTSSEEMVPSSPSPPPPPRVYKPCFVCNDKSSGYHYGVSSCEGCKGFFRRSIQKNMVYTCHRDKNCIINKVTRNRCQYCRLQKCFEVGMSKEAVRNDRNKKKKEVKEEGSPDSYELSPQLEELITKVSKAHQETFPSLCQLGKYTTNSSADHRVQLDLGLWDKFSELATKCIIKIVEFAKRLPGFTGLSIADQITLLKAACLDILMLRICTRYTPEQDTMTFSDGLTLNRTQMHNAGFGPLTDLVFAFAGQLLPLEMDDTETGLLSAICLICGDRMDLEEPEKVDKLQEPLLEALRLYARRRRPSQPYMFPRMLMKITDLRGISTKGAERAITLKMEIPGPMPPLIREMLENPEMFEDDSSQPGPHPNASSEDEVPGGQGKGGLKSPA
Nature of the series: RARE-luciferase reporter assay in transfected CV-1 cells (affinity to retinoic acid receptor), RARγ. The class given is cell-based. The note with it: treated 24 hours at final concentration 10^−4M, control group 5000. A digest of the protocol: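 CV-1 cells in DMEM with 2.5% FBS, 5,000 per well, transfected 24 h after seeding with 10 ng pECE-RARα, pECE-RARγ, 100 ng RARE-tk-Luc reporter and 100 ng β-galactosidase vector. Read-out is RARE-driven luciferase.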
(In general: Reporter assays use an easily measured gene product as a stand-in for the process of interest.)

The next series has as its system procollagen type I. Description: Effect on collagen biosynthesis (procollagen type I ELISA) in human fibroblasts. Format: cell-based. The note with it: 10^−4M, 24 hours, serum-free medium, relative to control group = 100. As to the method: Human fibroblasts were seeded into 24-well plate at 1×10^5 cells per well and then cultured to 90% of growth.
For each supernatant, procollagen production was measured with procollagen type I ELISA kit.
For orientation: An ELISA detects its analyte on a solid surface through an enzyme-linked reagent.

In the next series the test system is collagenase. Description: Inhibition of collagenase expression in human fibroblasts (ELISA kit). The class given is cell-based. The note with it: 10^−4M, 24 hours, serum-free medium, relative to control group = 100. The procedure, abridged: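 Serum-starved human fibroblasts were treated for 24 h with 10^−4M test material in serum-free DMEM. Collagenase in the culture fluid was measured by sandwich ELISA read at 405 nm. Values are expressed as % of the untreated control (=100).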

A further series deals with elastase. Nature of the series: Inhibition of elastase expression in human fibroblasts (ELISA kit). The note with it: 10^−4M, 24 hours, serum-free medium, relative to control group = 100. Format: cell-based. A digest of the protocol: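 Elastase in fibroblast culture fluid quantified by sandwich ELISA: 3 h capture, then chromophore-conjugated secondary antibody, then colour development, stopped with 1M sulfuric acid. Absorbance read at 405 nm. Expression given as % of the untreated control absorbance, with control set to 100.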

For a further series, the system named is white guinea pigs. Nature of the series: Phototoxicity test (UVA irradiation). The conditions noted are these: for Evaluation (phototoxicity): 1%(w/v) solution, UVA 15 J/cm^2; for Phototoxic index: 50 μl of 1%(w/v) solution, UVA 320~380 nm 15 J/cm^2, observed 24, 48 and 72 hours.
The subject of the next series is rabbits. Description: Primary skin irritation test on animals (Draize P.I.I.). The note with it: depilated back; for P.I.I. (Primary Irritation Index): 0.5 ml of 1% solution in 1,3-butylene glycol:ethanol 7:3, observed 24 or 72 hours later; for Evaluation (skin irritation): 1% solution, according to Draize's P.I.I.

In the case of `O=C(Cc1ccc(NC(=O)C23CC4CC(CC(C4)C2)C3)cc1)NO` [Example 32, N-[4-(N-hydroxycarbamoylmethyl)phenyl]adamantyl carboxyamide], the “Luciferase activity RARα” value at RARα amounted to 18000. On RARγ, the “Luciferase activity RARγ” value was 10000. For the same molecule, in the series on procollagen type I, the “Collagen biosynthesis (%)” value is 125%. Further, in the series with collagenase, the “Collagenase expression (%)” value was 79%. In addition, the “Elastase expression (%)” value in the series on elastase is 74%. Further, in the series on white guinea pigs, the “Evaluation (phototoxicity)” value is reported as “No phototoxicity (lower value than 0.5, criterion value to be estimated as no phototoxicity)” and the Phototoxic index worked out at 0. For the same molecule, in the series with rabbits, the “P.I.I. (Primary Irritation Index)” value was 0.375 and the “Evaluation (skin irritation)” value is listed as “No irritation”.
Regarding `CN(O)C(=O)Cc1ccc(NC(=O)C23CC4CC(CC(C4)C2)C3)cc1` [Example 33, 2-[4-(adamantlycarbonylamino)phenyl]-N-hydroxy-N-methylacetamide], the “Luciferase activity RARα” value at RARα came out at 13400. On RARγ, the “Luciferase activity RARγ” value turned out to be 11000. Further, in the series on procollagen type I, the “Collagen biosynthesis (%)” value came to 112%. Also, the “Collagenase expression (%)” value in the series on collagenase is 70%. Further, in the series with elastase, the “Elastase expression (%)” value is given as 82%. Further, in the series on white guinea pigs, the “Evaluation (phototoxicity)” value is “No phototoxicity (lower value than 0.5, criterion value to be estimated as no phototoxicity)” and the Phototoxic index is recorded as 0. Moreover, in the series with rabbits, the “P.I.I. (Primary Irritation Index)” value is 0.765 and the “Evaluation (skin irritation)” value is “No irritation”.
Consider `Cc1ccc(NC(=O)c2ccc(C(=O)NO)cc2)cc1` [Example 35, [4-(N-hydroxycarbamoyl)phenyl]-N-[4-methylphenyl]carboxyamide], for which the “Luciferase activity RARα” value on RARα was 14500. Moreover, the “Luciferase activity RARγ” value on RARγ is 11300. For the same molecule, in the series on procollagen type I, the “Collagen biosynthesis (%)” value worked out at 111%. Besides, in the series with collagenase, the “Collagenase expression (%)” value worked out at 90%. Also, the “Elastase expression (%)” value in the series with elastase was 71%. Further, in the series with white guinea pigs, the “Evaluation (phototoxicity)” value is recorded as “No phototoxicity (lower value than 0.5, criterion value to be estimated as no phototoxicity)” and the Phototoxic index came to 0. Further, in the series on rabbits, the “P.I.I. (Primary Irritation Index)” value was determined as 0.245 and the “Evaluation (skin irritation)” value was “No irritation”.
On to `Cc1cccc(NC(=O)c2ccc(C(=O)NO)cc2)c1` [Example 36, [4-(N-hydroxycarbamoyl)phenyl]-N-[3-methylphenyl]carboxyamide], for which the “Luciferase activity RARα” value on RARα is 16700. Moreover, the “Luciferase activity RARγ” value on RARγ is 11200. For the same molecule, in the series with procollagen type I, the “Collagen biosynthesis (%)” value is reported as 121%. In addition, in the series with collagenase, the “Collagenase expression (%)” value is listed as 68%. For the same molecule, the “Elastase expression (%)” value with elastase is 79%. In the series on white guinea pigs, the “Evaluation (phototoxicity)” value is reported as “No phototoxicity (lower value than 0.5, criterion value to be estimated as no phototoxicity)” and the Phototoxic index was 0. Also, in the series on rabbits, the “P.I.I. (Primary Irritation Index)” value is recorded as 0.456 and the “Evaluation (skin irritation)” value is “No irritation”.
With `CCc1ccc(NC(=O)c2ccc(C(=O)NO)cc2)cc1` [Example 37, [4-(N-hydroxycarbamoyl)phenyl]-N-[4-ethylphenyl]carboxyamide], at RARα, the “Luciferase activity RARα” value is recorded as 19000. The “Luciferase activity RARγ” value at RARγ turned out to be 10300. The “Collagen biosynthesis (%)” value in the series with procollagen type I turned out to be 121%. Moreover, the “Collagenase expression (%)” value in the series with collagenase came out at 70%. Besides, in the series with elastase, the “Elastase expression (%)” value is on record as 80%. In addition, in the series on white guinea pigs, the “Evaluation (phototoxicity)” value is “No phototoxicity (lower value than 0.5, criterion value to be estimated as no phototoxicity)” and the Phototoxic index stood at 0. In addition, in the series with rabbits, the “P.I.I. (Primary Irritation Index)” value stood at 0.456 and the “Evaluation (skin irritation)” value is reported as “No irritation”.
Regarding `CCCc1ccc(NC(=O)c2ccc(C(=O)NO)cc2)cc1` [Example 38, [4-(N-hydroxycarbamoyl)phenyl]-N-[4-propylphenyl]carboxyamide], at RARα, the “Luciferase activity RARα” value was determined as 17500. On RARγ, the “Luciferase activity RARγ” value was 10400. Also, in the series with procollagen type I, the “Collagen biosynthesis (%)” value came to 109%. Further, the “Collagenase expression (%)” value in the series on collagenase worked out at 87%. The “Elastase expression (%)” value in the series on elastase was 69%. Further, in the series with white guinea pigs, the “Evaluation (phototoxicity)” value was “No phototoxicity (lower value than 0.5, criterion value to be estimated as no phototoxicity)” and the Phototoxic index is given as 0. In addition, in the series on rabbits, the “P.I.I. (Primary Irritation Index)” value is recorded as 0.567 and the “Evaluation (skin irritation)” value is “No irritation”.
With `CC(C)c1ccc(NC(=O)c2ccc(C(=O)NO)cc2)cc1` [Example 39, [4-(N-hydroxycarbamoyl)phenyl]-N-[4-isopropylphenyl]carboxyamide], at RARα, the “Luciferase activity RARα” value is listed as 18700. Further, the “Luciferase activity RARγ” value at RARγ is reported as 10100. The “Collagen biosynthesis (%)” value in the series with procollagen type I is listed as 105%. For the same molecule, the “Collagenase expression (%)” value in the series with collagenase came to 78%. Besides, in the series with elastase, the “Elastase expression (%)” value is 87%. In the series with white guinea pigs, the “Evaluation (phototoxicity)” value is listed as “No phototoxicity (lower value than 0.5, criterion value to be estimated as no phototoxicity)” and the Phototoxic index is on record as 0. Moreover, in the series on rabbits, the “P.I.I. (Primary Irritation Index)” value is listed as 0.145 and the “Evaluation (skin irritation)” value was “No irritation”.
`CCCCc1ccc(NC(=O)c2ccc(C(=O)NO)cc2)cc1` [Example 40, [4-(N-hydroxycarbamoyl)phenyl]-N-[4-butylphenyl]carboxyamide]: the “Luciferase activity RARα” value at RARα is given as 14300. Besides, the “Luciferase activity RARγ” value at RARγ is listed as 11200. In the series on procollagen type I, the “Collagen biosynthesis (%)” value stood at 108%. The “Collagenase expression (%)” value with collagenase is reported as 77%. Further, the “Elastase expression (%)” value in the series on elastase amounted to 90%. Also, in the series on white guinea pigs, the “Evaluation (phototoxicity)” value is reported as “No phototoxicity (lower value than 0.5, criterion value to be estimated as no phototoxicity)” and the Phototoxic index is recorded as 0. In addition, in the series on rabbits, the “P.I.I. (Primary Irritation Index)” value worked out at 0.546 and the “Evaluation (skin irritation)” value is “No irritation”.
Consider `CC(C)(C)c1ccc(NC(=O)c2ccc(C(=O)NO)cc2)cc1` [Example 41, [4-(N-hydroxycarbamoyl)phenyl]-N-[4-tert-butylphenyl]carboxyamide], for which the “Luciferase activity RARα” value at RARα turned out to be 14300. Moreover, the “Luciferase activity RARγ” value on RARγ is given as 11211. In addition, in the series on procollagen type I, the “Collagen biosynthesis (%)” value is recorded as 115%. In the series with collagenase, the “Collagenase expression (%)” value is 88%. The “Elastase expression (%)” value in the series with elastase is listed as 78%. Further, in the series with white guinea pigs, the “Evaluation (phototoxicity)” value is on record as “No phototoxicity (lower value than 0.5, criterion value to be estimated as no phototoxicity)” and the Phototoxic index is 0. For the same molecule, in the series with rabbits, the “P.I.I. (Primary Irritation Index)” value stood at 0.367 and the “Evaluation (skin irritation)” value is given as “No irritation”.
Take `Cc1ccc(NC(=O)c2ccc(C(=O)NO)cc2)cc1C` [Example 42, [4-(N-hydroxycarbamoyl)phenyl]-N-[3,4-dimethylphenyl]carboxyamide]: the “Luciferase activity RARα” value on RARα turned out to be 14500. In addition, the “Luciferase activity RARγ” value at RARγ was 11200. The “Collagen biosynthesis (%)” value with procollagen type I is on record as 116%. For the same molecule, the “Collagenase expression (%)” value with collagenase amounted to 78%. Further, in the series on elastase, the “Elastase expression (%)” value turned out to be 76%. In the series with white guinea pigs, the “Evaluation (phototoxicity)” value was “No phototoxicity (lower value than 0.5, criterion value to be estimated as no phototoxicity)” and the Phototoxic index is listed as 0. In the series on rabbits, the “P.I.I. (Primary Irritation Index)” value is listed as 0.987 and the “Evaluation (skin irritation)” value is “No irritation”.
